From publication PMC10850954, “HDAC6/aggresome processing pathway importance for inflammasome formation is context-dependent” (The Journal of Biological Chemistry, 2024)

Columns and labels:
Test in all cases: In vitro enzymatic assay with purified HDACs
Format in all cases: biochemical
HDAC6 = molecular target: T1, HDAC6 (Homo sapiens, UniProt Q9UBN7)
T1 sequence (Q9UBN7 1-1215): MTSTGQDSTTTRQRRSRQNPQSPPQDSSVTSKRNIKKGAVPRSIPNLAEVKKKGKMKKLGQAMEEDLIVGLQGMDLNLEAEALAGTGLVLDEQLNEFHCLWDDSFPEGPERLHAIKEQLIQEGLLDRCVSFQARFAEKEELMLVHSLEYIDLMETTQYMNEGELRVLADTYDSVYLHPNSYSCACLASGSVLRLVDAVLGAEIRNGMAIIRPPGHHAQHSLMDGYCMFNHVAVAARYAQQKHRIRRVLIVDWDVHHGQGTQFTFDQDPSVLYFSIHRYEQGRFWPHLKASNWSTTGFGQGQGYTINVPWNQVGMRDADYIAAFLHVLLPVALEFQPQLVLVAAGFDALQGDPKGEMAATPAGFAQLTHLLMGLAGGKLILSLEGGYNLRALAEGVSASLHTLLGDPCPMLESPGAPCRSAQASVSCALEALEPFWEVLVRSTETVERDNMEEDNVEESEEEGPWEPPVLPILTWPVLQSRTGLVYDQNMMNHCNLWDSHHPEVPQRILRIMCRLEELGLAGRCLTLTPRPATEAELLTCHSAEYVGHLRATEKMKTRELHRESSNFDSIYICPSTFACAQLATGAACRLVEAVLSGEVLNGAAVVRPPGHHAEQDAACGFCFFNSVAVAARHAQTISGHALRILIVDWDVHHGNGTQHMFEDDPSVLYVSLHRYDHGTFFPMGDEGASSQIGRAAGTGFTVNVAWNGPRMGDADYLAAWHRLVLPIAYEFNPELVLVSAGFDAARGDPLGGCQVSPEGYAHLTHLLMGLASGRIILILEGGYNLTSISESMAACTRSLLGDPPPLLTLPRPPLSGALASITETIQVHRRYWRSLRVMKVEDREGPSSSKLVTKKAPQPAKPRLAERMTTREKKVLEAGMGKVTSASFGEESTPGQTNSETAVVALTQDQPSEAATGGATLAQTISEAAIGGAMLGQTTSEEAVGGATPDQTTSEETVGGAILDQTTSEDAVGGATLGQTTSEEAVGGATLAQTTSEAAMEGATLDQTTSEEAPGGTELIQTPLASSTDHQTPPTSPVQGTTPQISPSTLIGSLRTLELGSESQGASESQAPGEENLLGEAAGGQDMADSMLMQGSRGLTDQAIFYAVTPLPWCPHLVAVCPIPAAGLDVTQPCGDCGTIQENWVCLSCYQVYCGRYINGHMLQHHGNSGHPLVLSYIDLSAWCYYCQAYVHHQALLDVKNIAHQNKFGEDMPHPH
Excerpt: (§1) To extend these observations in other cell settings, we next made use of a novel HDAC6 proteolysis targeting chimera (PROTAC) degrader, XY-07-35 ([19]). Treatment of cells with XY-07-35 leads to recruitment of the E3 ligase cereblon (CRBN) to HDAC6, ubiquitination, and subsequent proteasomal degradation of HDAC6 (Fig. 3A).
(§2) Figure 3 Effect of […] mediated HDAC6 degradation on NLRP3 inflammasome activation in PBMCs.A, schematic of the mode of action of an HDAC6 degrader. The PROTAC engages both HDAC6 and the E3 ligase cereblon (CRBN), which then leads to ubiquitination and degradation of HDAC6. B, chemical structure of the HDAC6 degrader XY-07-35 and of the negative control XY-07-191 which no longer recruits CRBN. C, in vitro enzymatic assay of compound XY-07-35 on the activity of different HDACs. IC50 for each enzyme is shown. D, XY-07-35 mediated HDAC6 degradation in PBMCs. PBMCs (without or with LPS priming for 4 h) were treated with the indicated compounds and HDAC6 levels were detected by immunoblotting with an anti-HDAC6 antibody. Detection of actin was used as a control for loading. CGP, CGP084892 (Caspase-1 inhibitor); AFN700 is an inhibitor of the NF-kB pathway (IKK inhibitor). E, HDAC6 degradation impact on IL-1β release in PBMCs following MSU 200 μg/ml (5 h), nigericin 2 μM (2 h) or ATP 3 mM (0.5 h) treatment. Cells were first primed with 0.2 ng/ml LPS for 4 h at 37 °C, then treated with MSU, nigericin, and ATP as indicated. The graphs below show the results of three independent experiments using the inducers as indicated. NP3-948 is an inhibitor of the NLRP3 inflammasome. TEXT PRINTED IN THE PICTURE: (C) XY-07-035: Compound IC50 (μM): 1.04 (Target: HDAC1); Compound IC50 (μM): 2.47 (Target: HDAC2); Compound IC50 (μM): 1.44 (Target: HDAC3); Compound IC50 (μM): 5.75 (Target: HDAC5); Compound IC50 (μM): 0.0485 (Target: HDAC6); Compound IC50 (μM): 0.621 (Target: HDAC8) DOUBTS OF THE COPYIST ABOUT THIS PICTURE: XY-07-035, HDAC4, HDAC7 and HDAC9: the table prints only dashes (--), no value, so these rows are left out

HDAC3 = HDAC3 (Homo sapiens, UniProt O15379)
Excerpt: as §1, §2

HDAC8 = molecular target: T2, HDAC8 (Homo sapiens, UniProt Q9BY41)
T2 sequence (Q9BY41 1-377): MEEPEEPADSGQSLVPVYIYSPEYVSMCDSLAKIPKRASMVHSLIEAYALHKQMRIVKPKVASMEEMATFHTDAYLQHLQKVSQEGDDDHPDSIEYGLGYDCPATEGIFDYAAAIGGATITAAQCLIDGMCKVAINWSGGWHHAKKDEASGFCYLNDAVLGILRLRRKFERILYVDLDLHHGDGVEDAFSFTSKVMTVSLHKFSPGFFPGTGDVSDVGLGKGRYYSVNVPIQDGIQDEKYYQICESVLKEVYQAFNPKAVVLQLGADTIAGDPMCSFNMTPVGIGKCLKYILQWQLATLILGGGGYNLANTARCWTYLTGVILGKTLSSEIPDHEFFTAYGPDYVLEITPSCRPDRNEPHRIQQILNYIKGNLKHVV
Excerpt: as §1, §2

HDAC5 = HDAC5 (Homo sapiens, UniProt Q9UQL6)
Excerpt: as §1, §2

HDAC3, sequence (O15379 whole entry, species assumed): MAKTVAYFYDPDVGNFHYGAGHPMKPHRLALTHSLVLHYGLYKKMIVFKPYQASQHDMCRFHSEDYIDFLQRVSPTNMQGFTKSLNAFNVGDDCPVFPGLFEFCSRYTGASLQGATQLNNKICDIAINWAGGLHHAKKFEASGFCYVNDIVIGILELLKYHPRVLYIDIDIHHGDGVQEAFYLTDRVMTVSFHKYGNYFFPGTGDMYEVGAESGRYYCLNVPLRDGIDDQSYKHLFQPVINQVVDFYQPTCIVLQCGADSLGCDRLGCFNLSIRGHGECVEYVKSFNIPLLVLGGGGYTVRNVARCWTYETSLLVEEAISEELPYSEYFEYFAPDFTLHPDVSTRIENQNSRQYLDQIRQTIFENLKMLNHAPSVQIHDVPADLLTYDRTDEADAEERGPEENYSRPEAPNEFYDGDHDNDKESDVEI
HDAC3, sequence (Q9Y618 395-489 partner limits assumed, species assumed): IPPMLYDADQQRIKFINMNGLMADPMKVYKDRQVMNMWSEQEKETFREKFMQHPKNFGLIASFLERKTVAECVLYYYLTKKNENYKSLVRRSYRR
HDAC5, sequence (Q9UQL6 whole entry, species assumed): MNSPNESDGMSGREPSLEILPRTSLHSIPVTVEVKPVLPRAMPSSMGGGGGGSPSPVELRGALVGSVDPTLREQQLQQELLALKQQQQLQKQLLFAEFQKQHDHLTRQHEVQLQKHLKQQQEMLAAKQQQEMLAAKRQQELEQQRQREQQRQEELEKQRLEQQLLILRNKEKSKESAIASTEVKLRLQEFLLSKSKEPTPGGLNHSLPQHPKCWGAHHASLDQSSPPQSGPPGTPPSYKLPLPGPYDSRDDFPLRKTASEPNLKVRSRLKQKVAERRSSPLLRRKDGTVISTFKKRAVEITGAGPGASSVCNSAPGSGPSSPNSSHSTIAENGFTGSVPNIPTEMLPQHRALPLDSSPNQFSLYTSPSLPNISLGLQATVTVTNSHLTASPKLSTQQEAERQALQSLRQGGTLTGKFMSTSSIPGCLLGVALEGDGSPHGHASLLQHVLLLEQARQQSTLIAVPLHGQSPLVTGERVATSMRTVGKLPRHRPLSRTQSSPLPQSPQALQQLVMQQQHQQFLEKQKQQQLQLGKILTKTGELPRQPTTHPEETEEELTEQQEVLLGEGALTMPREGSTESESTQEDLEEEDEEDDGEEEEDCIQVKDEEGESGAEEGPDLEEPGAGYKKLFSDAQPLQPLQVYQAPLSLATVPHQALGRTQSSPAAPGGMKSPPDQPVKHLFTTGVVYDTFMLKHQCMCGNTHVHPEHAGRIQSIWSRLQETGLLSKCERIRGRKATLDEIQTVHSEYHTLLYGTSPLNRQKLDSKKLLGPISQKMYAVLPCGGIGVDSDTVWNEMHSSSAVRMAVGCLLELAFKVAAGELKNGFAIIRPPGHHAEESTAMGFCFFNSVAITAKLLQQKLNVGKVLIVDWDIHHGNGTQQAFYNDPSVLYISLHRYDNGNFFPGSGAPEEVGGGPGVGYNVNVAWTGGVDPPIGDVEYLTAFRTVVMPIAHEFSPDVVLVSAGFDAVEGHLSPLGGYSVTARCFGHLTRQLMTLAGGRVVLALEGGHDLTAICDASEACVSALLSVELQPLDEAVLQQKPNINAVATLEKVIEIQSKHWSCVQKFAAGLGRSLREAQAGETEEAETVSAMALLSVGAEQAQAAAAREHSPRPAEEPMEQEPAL

Structure (SMILES): CN(C(=O)CCCNc1cccc2c1C(=O)N(C1CCC(=O)NC1=O)C2=O)c1ccc(NC(=O)CCCCCCC(=O)NO)cc1 (stereo not shown) [XY-07-35]
- IC50 (HDAC6): 48.5 nM
- IC50 (HDAC3): 1440 nM
- IC50 (HDAC8): 621 nM
- IC50 (HDAC5): 5750 nM
